Values quoted from earlier work, collected in paper PMC9175271, “Live-cell microscopy or fluorescence anisotropy with budded baculoviruses—which way to go with measuring ligand binding to M4 muscarinic receptors?” (Open Biology, 2022).

Molecular target: M4 receptor
Details: mean of literature values, per ligand as in column ref.; ref [50], [63], [74]–[89]

Question: With `CN1[C@@H]2C[C@@H](OC(=O)[C@H](CO)c3ccccc3)C[C@H]1[C@@H]1O[C@@H]12` [scopolamine] as the compound, how does the “pKi ± s.e.m. (radioligand)” value read?
Answer: The value was 9.28 ± 0.19.
